Here are results for two compounds from article PMC8507260, “A2E-induced inflammation and angiogenesis in RPE cells in vitro are modulated by PPAR-α, -β/δ, -γ, and RXR antagonists and by norbixin” (Aging (Albany NY), 2021).

A word on the IC50: it is the concentration that inhibits the measured activity by half. A high value points to weaker potency in that assay. What is called Kd is the constant that tells how readily two partners part at equilibrium. Low values mean a tighter complex, high ones a looser complex.

Molecules are shown by their SMILES.

The subject of one assay is CCL2. Briefly: CCL2 mRNA expression by quantitative RT-PCR in porcine RPE cells. It is filed as cell-based. The method, then: Pig eyes were obtained from a local slaughterhouse and transported to the laboratory in ice-cold Ringer solution. After removal of the anterior segment of the eye, the vitreous and neural retina was separated from the RPE and removed. The eyecup was washed twice with phosphate buffer saline (PBS), filled with trypsin (0.25% in PBS) and incubated at 37°C for 1.5 h. RPE cells were harvested by gently pipetting, centrifuged to remove trypsin and re-suspended in Dulbecco’s Modified Eagle Medium (DMEM) supplemented with 20% (v/v) foetal-calf serum (DMEM20%FCS) and 0.1% gentamycin. Cells were seeded into 60 mm diameter Petri dishes, cultured in an atmosphere of 5% CO2/95% air at 37°C, and supplied with fresh medium after 24 hours and 4 days in vitro. For experiments aimed at measuring mRNA or protein expression in RPE, cells were trypsinized after one week in culture and transferred to 24-well or 6-well plates at a density of 1.5 × 10^5 cells/cm^2 in DMEM2%FCS. Norbixin or agonists were added to the medium 24 h after seeding, and antagonists were added to the medium 24 h later. A2E treatment was performed during 19 h before cellular sample preparation. […]
Total RNA was extracted using the NucleoSpin® RNA kit according to manufacturer’s instructions. […] The relative mRNA expression was calculated using the comparative threshold method (Ct-method) with GAPDH for normalization. […]

The target of the next assay is T1, PPAR-α (Homo sapiens, UniProt Q07869).
T1 construct: Eurofins Cerep (contract laboratory that ran the assay)
T1 sequence (Q07869 1-468): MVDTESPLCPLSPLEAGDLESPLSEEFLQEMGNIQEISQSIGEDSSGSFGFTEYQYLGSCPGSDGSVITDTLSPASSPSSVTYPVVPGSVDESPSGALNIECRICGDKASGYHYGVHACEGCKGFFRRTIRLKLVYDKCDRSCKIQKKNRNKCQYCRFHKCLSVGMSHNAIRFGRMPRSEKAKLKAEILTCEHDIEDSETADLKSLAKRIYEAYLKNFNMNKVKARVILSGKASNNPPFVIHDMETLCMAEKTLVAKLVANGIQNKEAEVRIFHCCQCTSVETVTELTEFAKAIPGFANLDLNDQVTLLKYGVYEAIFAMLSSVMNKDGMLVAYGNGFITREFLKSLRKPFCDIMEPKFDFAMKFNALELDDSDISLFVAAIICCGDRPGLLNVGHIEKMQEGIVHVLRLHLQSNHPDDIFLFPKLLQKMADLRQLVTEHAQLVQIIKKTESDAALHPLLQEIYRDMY
Briefly: Competition binding to PPAR-α against [3H]GW7647 (Eurofins Cerep). The settings on record: competition with [3H]GW7647. The source says: The binding and activity of norbixin on PPARs remains controversial, thus, firstly, we performed competition experiments in vitro between norbixin and [^3H] GW7647, an agonist of PPAR-α, and [^3H] rosiglitazone, an agonist of PPAR-γ. […] Secondly, we tested whether norbixin could induce the transactivation of PPAR-α, -β/δ or -γ in the context of RPE cells in vitro by co-transfecting porcine RPE cells with a plasmid expressing each of the full-length PPAR isoforms and a plasmid expressing luciferase under the control of the PPAR response element. […] Then, we wanted to determine if norbixin could modulate the transactivation of PPAR isoforms induced by specific agonists.
Binding studies of A2E and norbixin to RXR-α and PPAR-α and γ were performed in vitro by an external laboratory (Eurofins Cerep, Celle L’Evescault, France) through competition experiments between A2E or norbixin and [^3H]9-cis-retinoic acid as the natural ligand of RXR-α, [^3H]GW7647 an agonist of PPAR-α and [^3H]Rosiglitazone an agonist of PPAR-γ.

With `CC(/C=C/C=C(C)/C=C/C(=O)O)=C\C=C\C=C(C)\C=C\C=C(C)\C=C\C(=O)O` (stereo in doubt) [norbixin, 9’-cis-norbixin], the “effect on CCL2 mRNA expression induced by A2E” value in the assay on CCL2 (NBX 20 μM + A2E 30 μM) is “further increased”. At PPAR-α, this compound displayed an IC50 of 16.5 µM and a Kd of 15 µM.

Take `CC(C=CC1=C(C)CCCC1(C)C)=CC=CC(C)=Cc1cc(C=CC=C(C)C=CC2=C(C)CCCC2(C)C)cc[n+]1CCO` [A2E, N-retinylidene-N-retinylethanolamine]: in the assay with CCL2 (A2E 30 μM vs DMSO control), the “effect of the compound alone on CCL2 mRNA expression” value is on record as “up-regulated”. Further, at PPAR-α, the half-maximal inhibitory concentration (IC50) was 42.7 µM and binding was put at a Kd of 41 µM.
